Source: patent US11440906B2, “Biguanide derivatives and their rearrangement products for use in the treatment of cancer” (CENTRE NATIONAL DE LA RECHERCHE SCIENTIFIQUE, priority 2017, dated 2022)
Read-outs that look alike come from different tables or passages of the source.

Tested on: A375 Sensitive cells
Assay: Viability test, trypan blue exclusion, A375 Sensitive cells
Type: cell-based, human
Settings: Homo sapiens, A-375, viable cells as percentage of DMSO control
Text: Different melanoma cell lines were purchased from the American Tissue Culture Collection: A375 and WM9 cells are mutated on B-Raf, CDKN2A and PTEN proteins; SKmel28 cells are mutated on B-Raf and P53 proteins; 1205Lu cells are mutated on B-Raf and PTEN proteins; G-361 cells are mutated on B-Raf and CDKN2A proteins; C8161 cells are mutated on B-Raf and K-Ras proteins; WM3912 cells are mutated on B-Raf and CDKN2A proteins; MeWo cells are mutated on P53 and CDKN2A proteins; WM3918 presents no mutations on characteristic proteins.
For trypan blue staining, […] of cells (melanoma and normal human cells) were aseptically transferred to a 1.5 mL clear Eppendorf tube and incubated for 3 min at room temperature with an equal volume of 0.4% trypan blue solution. Viable cells were counted and the results are expressed as the percentage of the value of control cells. All the experiments are performed 3 times in triplicate.
A375 Sensitive cells were treated with different concentrations of the synthesized molecules (5.0 μM or 10 μM) for different times (24 hr or 48 hr) or with DMSO (Control) for 12 or 48 hr. At the end of the stimulation, viable cells were counted using the trypan blue dye exclusion method. The results are normalized as percentages compare to the control.
A375 Sensitive cells were treated with 5 μM of CRO15 for different times (2 hr, 4 hr, 6 hr, 8 hr, 12 hr, 24 hr or 48 hr) or with 5 μM of PLX4032 (B-Raf inhibitor) for 48 hr or with DMSO (Control) for 48 hr. At the end of stimulation, viable cells were counted using the trypan blue dye exclusion method. The results are normalized as percentages compare to the control and data means±SEM of three independent experiments performed in triplicate *p<0.05; **p<0.01; ***p<0.001.
A375 Sensitive cells were treated with different concentrations of CRO15 (0.5 μM, 2.5 μM, 5.0 μM, 7.5 μM, 50 μM) for 48 hr or with 5 μM of PLX4032 (B-Raf inhibitor) for 48 hr or with DMSO (Control) for 48 hr. At the end of the stimulation, viable cells were counted using the trypan blue dye exclusion method. The results are normalized as percentages compare to the control and data means±SEM of three independent experiments performed in triplicate *p<0.05; **p<0.01; ***p<0.001.
A375 sensitive and resistant melanoma cells were treated with 5 μM of CRO15 for 48 hr or with 5 μM of PLX4032 for 48 hr or with DMSO (Control). At 48 hours, viable cells were counted using the trypan blue dye exclusion method. The results are normalized as percentages compare to the control and data means±SEM of three independent experiments performed in triplicate *p<0.05; **p<0.01; ***p<0.001.

[1] = 24 h, read-out: Viab A375 5 μM/ 24 h
[2] = 48 h, read-out: Viab A375 5 μM/ 48 h
[3] = 24 h, read-out: Viab A375 10 μM/ 24 h
[4] = 48 h, read-out: Viab A375 10 μM/ 48 h

| SMILES | viability at 5 µM [1] | viability at 5 µM [2] | viability at 10 µM [3] | viability at 10 µM [4] |
| --- | --- | --- | --- | --- |
| COc1cccc(-c2nc(N)nc(Nc3ccccc3SSc3ccccc3Nc3nc(N)nc(-c4cccc(OC)c4)n3)n2)c1 [MTF 318] | 74.1% | 21.6% | 20.5% | 6.3% |
| N=C(NC(=N)c1ccccn1)Nc1nc2ccccc2s1 [MTF 251, N—(N-(benzo[d]thiazol-2-yl)carbamimidoyl)picolinimidamide] | 48.9% | 44.7% | 45.1% | 19.5% |
| N=c1nc(C(Cl)(Cl)Cl)nc(Nc2cc(Cl)ccc2O)[nH]1 [MTF 374, 2-((4-amino-6-(trichloromethyl)-1,3,5-triazin-2-yl)amino)-4-chlorophenol] | 47% | 69.2% | 24% | 27.7% |
| Nc1nc(Nc2ccccc2SSc2ccccc2Nc2nc(N)nc(-c3ccccc3Cl)n2)nc(-c2ccccc2Cl)n1 [MTF 450, N2,N2′-(disulfanediylbis(2,1-phenylene))bis(6-(2-chlorophenyl)-1,3,5-triazine-2,4-diamine)] | 38.6% | 54.8% | 38.3% | 49.9% |
| Cc1csc(NC(=N)NC(=N)c2ccccc2Br)n1 [MTF 287, 2-bromo-N—(N-(4-methylthiazol-2-yl)carbamimidoyl)benzimidamide] | 60.9% | 86.7% | 53.7% | 69.5% |
| CSc1ccccc1Nc1nc(N)nc(C(Cl)Cl)n1 [MTF 317, 6-(dichloromethyl)-N2-(2-(methylthio)phenyl)-1,3,5-triazine-2,4-diamine] | 106% | 58.7% | 109% | 70% |
| Cc1csc(NC(=N)NC(=N)c2ccc(Cl)cc2)n1 [MTF 286, 4-chloro-N—(N-(4-methylthiazol-2-yl)carbamimidoyl)benzimidamide] | 48% | 155% | 65.3% | 120% |
| N=C(NC(=N)C(Cl)(Cl)Cl)Nc1nc2ccccc2s1 [MTF 305, N—(N-(benzo[d]thiazol-2-yl)carbamimidoyl)-2,2,2-trichloroacetimidamide] | 11% | 20.7% | 5.5% | 4.7% |
| N=C(NC(=N)c1ccc(Cl)cc1)Nc1nc2ccccc2s1 [MTF 245, N—(N-(benzo[d]thiazol-2-yl)carbamimidoyl)-4-chlorobenzimidamide] | 95% | 100% | 83% | 79.6% |
| Cc1csc(NC(=N)NC(=N)c2ccccc2)n1 [MTF 283, N—(N-(4-methylthiazol-2-yl)carbamimidoyl)benzimidamide] | 100% | 56% | 100% | 150% |
| Nc1nc(Nc2ccc([N+](=O)[O-])cc2O)nc(C(Cl)(Cl)Cl)n1 [MTF 376, 2-((4-amino-6-(trichloromethyl)-1,3,5-triazin-2-yl)amino)-5-nitrophenol] | 44.7% | 38.9% | 24.3% | 20.9% |
| Nc1nc(Nc2ccccc2SSc2ccccc2Nc2nc(N)nc(-c3c(Br)cncc3Br)n2)nc(-c2c(Br)cncc2Br)n1 [MTF 456, N2,N2′-(disulfanediylbis(2,1-phenylene))bis(6-(3,5-dibromopyridin-4-yl)-1,3,5-triazine-2,4-diamine)] | 66.5% | 87.5% | 52.3% | 76.1% |
| N=C(NC(=N)c1ccc(C(F)(F)F)cc1)Nc1nc2ccccc2s1 [MTF 385, N—(N-(benzo[d]thiazol-2-yl)carbamimidoyl)-4-(trifluoromethyl)benzimidamide] | 52.3% | 68.1% | 86.6% | 81.5% |
| Nc1nc(Nc2ccc(F)cc2SSc2cc(F)ccc2Nc2nc(N)nc(C(Cl)(Cl)Cl)n2)nc(C(Cl)(Cl)Cl)n1 [MTF 234, N2,N2′-(disulfanediylbis(4-fluoro-2,1-phenylene))bis(6-(trichloromethyl)-1,3,5-triazine-2,4-diamine)] | 29.6% | 17.4% | 9.6% | 7.8% |
| Nc1nc(Nc2ccccc2SSc2ccccc2Nc2nc(N)nc(-c3ccc4c(c3)OCO4)n2)nc(-c2ccc3c(c2)OCO3)n1 [MTF 449, N2,N2′-(disulfanediylbis(2,1-phenylene))bis(6-(benzo[d][1,3]dioxol-5-yl)-1,3,5-triazine-2,4-diamine)] | 74.2% | 67.8% | 59.1% | 53% |
| Cc1nc(NC(=N)NC(=N)c2ccccn2)sc1C [MTF 297, N—(N-(4,5-dimethylthiazol-2-yl)carbamimidoyl)picolinimidamide] | 86.2% | 59.8% | 97.9% | 24.9% |
| Nc1nc(Nc2ccccc2SSc2ccccc2Nc2nc(N)nc(-c3cccnc3)n2)nc(-c2cccnc2)n1 [MTF 330, N2,N2′-(disulfanediylbis(2,1-phenylene))bis(6-(pyridin-3-yl)-1,3,5-triazine-2,4-diamine)] | 123% | 73.9% | 60.1% | 41.6% |
| Nc1nc(Nc2ccccc2SSc2ccccc2Nc2nc(N)nc(-c3cccc([N+](=O)[O-])c3)n2)nc(-c2cccc([N+](=O)[O-])c2)n1 [MTF 445, N2,N2′-(disulfanediylbis(2,1-phenylene))bis(6-(3-nitrophenyl)-1,3,5-triazine-2,4-diamine)] | 62.6% | 35.2% | 72.4% | 16.3% |
| CCOc1cccc(C(=N)NC(=N)Nc2nc3ccccc3s2)c1 [MTF 344, N—(N-(benzo[d]thiazol-2-yl)carbamimidoyl)-3-ethoxybenzimidamide] | 84.3% | 26.1% | 38.7% | 26.1% |
| Cc1nc(NC(=N)NC(=N)c2ccccc2)sc1C [MTF 303, N—(N-(4,5-dimethylthiazol-2-yl)carbamimidoyl)benzimidamide] | 85.6% | 44.2% | 66.1% | 39.1% |
| Cc1csc(NC(=N)NC(=N)c2cccnc2)n1 [MTF 290, N—(N-(4-methylthiazol-2-yl)carbamimidoyl)nicotinimidamide] | 43.4% | 21.6% | 50.5% | 14.4% |
| N=C(NC(=N)c1ccnc(Cl)c1)Nc1nc2ccccc2s1 [MTF 380, N—(N-(benzo[d]thiazol-2-yl)carbamimidoyl)-2-chloroisonicotinimidamide] | 47.3% | 4.9% | 36.2% | 2.3% |
| COc1ccc(-c2nc(N)nc(Nc3ccccc3SSc3ccccc3Nc3nc(N)nc(-c4ccc(OC)cc4)n3)n2)cc1 [MTF 324, N2,N2′-(disulfanediylbis(2,1-phenylene))bis(6-(4-methoxyphenyl)-1,3,5-triazine-2,4-diamine)] | 44.1% | 13.3% | 12.9% | 8.2% |
| Nc1nc(Nc2ccccc2SSc2ccccc2Nc2nc(N)nc(-c3cscc3Br)n2)nc(-c2cscc2Br)n1 [MTF 397, N2,N2′-(disulfanediylbis(2,1-phenylene))bis(6-(4-bromothiophen-3-yl)-1,3,5-triazine-2,4-diamine)] | 35.4% | 33.7% | 13.4% | 7.3% |
